From ChEMBL document CHEMBL1201862, “PubChem BioAssay data set” (2004)
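Test compounds were applied to cells in 96-well plates for 48 hours at 5 doses. The concentration for 50% growth inhibition is given as GI50.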 The source made the active and inactive calls. Cut-off read from the data, not from the text of the source: active = GI50 up to about 1.1 µM and inactive = higher.

Assays:
Test in all cases: NCI anticancer screen, dose series, 48 h
CCRF-CEM = tested on: CCRF-CEM
NCI-H522 = tested on: NCI-H522
SNB-19 = tested on: SNB-19
SR = tested on: SR
HOP-92 = tested on: HOP-92
OVCAR-5 = tested on: OVCAR-5
IGROV-1 = tested on: IGROV-1
EKVX = tested on: EKVX
TK-10 = tested on: TK-10
OVCAR-8 = tested on: OVCAR-8
Malme-3M = tested on: Malme-3M
SNB-75 = tested on: SNB-75
M14 = tested on: M14
NCI-H23 = tested on: NCI-H23
HCT-15 = tested on: HCT-15
UACC-62 = tested on: UACC-62
A549 = tested on: A549
HOP-62 = tested on: HOP-62
HCC 2998 = tested on: HCC 2998
KM12 = tested on: KM12
M19-MEL = tested on: M19-MEL
SF-539 = tested on: SF-539
U-251 = tested on: U-251
SK-MEL-5 = tested on: SK-MEL-5
SK-OV-3 = tested on: SK-OV-3
DMS-273 = tested on: DMS-273
SF-268 = tested on: SF-268
SNB-78 = tested on: SNB-78
OVCAR-4 = tested on: OVCAR-4
UO-31 = tested on: UO-31
COLO 205 = tested on: COLO 205
HOP-18 = tested on: HOP-18
OVCAR-3 = tested on: OVCAR-3
ACHN = tested on: ACHN
KM-20L2 = tested on: KM-20L2
HT-29 = tested on: HT-29
A498 = tested on: A498
HCT-116 = tested on: HCT-116
SK-MEL-2 = tested on: SK-MEL-2
CAKI-1 = tested on: CAKI-1
RXF 393 = tested on: RXF 393
K562 = tested on: K562
DMS-114 = tested on: DMS-114
SF-295 = tested on: SF-295
LOX IMVI = tested on: LOX IMVI
DLD-1 = tested on: DLD-1
NCI-H460 = tested on: NCI-H460
XF498 = tested on: XF498
SK-MEL-28 = tested on: SK-MEL-28
MOLT-4 = tested on: MOLT-4
LXFL 529 = tested on: LXFL 529
HL-60 = tested on: HL-60
SW-620 = tested on: SW-620
SN12C = tested on: SN12C
NCI-H226 = tested on: NCI-H226
UACC-257 = tested on: UACC-257
786-0 = tested on: 786-0
RPMI-8226 = tested on: RPMI-8226

Measured: GI50

CCOC(=O)c1cccnc1C(OC(C)=O)OC(C)=O
> 100 µM: HCT-15
inactive: CCRF-CEM > 100 µM | NCI-H522 > 100 µM | SNB-19 > 100 µM | SR > 100 µM | HOP-92 > 100 µM | OVCAR-5 > 100 µM | IGROV-1 > 100 µM | EKVX > 100 µM | TK-10 > 100 µM | OVCAR-8 > 100 µM | Malme-3M > 100 µM | SNB-75 > 100 µM | M14 > 100 µM | NCI-H23 > 100 µM | UACC-62 > 100 µM | A549 > 100 µM | HOP-62 > 100 µM | HCC 2998 > 100 µM | KM12 > 100 µM | M19-MEL > 100 µM | SF-539 > 100 µM | U-251 > 100 µM | SK-MEL-5 > 100 µM | SK-OV-3 > 100 µM | DMS-273 > 100 µM | SF-268 > 100 µM | SNB-78 > 100 µM | OVCAR-4 > 100 µM | UO-31 > 100 µM | COLO 205 > 100 µM | HOP-18 > 100 µM | OVCAR-3 > 100 µM | ACHN 74.8 µM | KM-20L2 > 100 µM | HT-29 > 100 µM | A498 > 100 µM | HCT-116 > 100 µM | SK-MEL-2 > 100 µM | CAKI-1 > 100 µM | RXF 393 > 100 µM | K562 > 100 µM | DMS-114 > 100 µM | SF-295 83.4 µM | LOX IMVI 70 µM | DLD-1 > 100 µM | NCI-H460 > 100 µM | XF498 > 100 µM | SK-MEL-28 > 100 µM | MOLT-4 > 100 µM | LXFL 529 > 100 µM | HL-60 49.9 µM | SW-620 > 100 µM | SN12C > 100 µM | NCI-H226 > 100 µM | UACC-257 > 100 µM | 786-0 > 100 µM

COc1ccc(CSc2nc3ccccc3nc2-c2cccs2)cc1
inactive: CCRF-CEM 15.2 µM | RPMI-8226 > 100 µM | SNB-19 > 100 µM | HOP-92 > 100 µM | EKVX > 100 µM | OVCAR-8 > 100 µM | Malme-3M > 100 µM | SNB-75 > 100 µM | M14 > 100 µM | NCI-H23 > 100 µM | A549 > 100 µM | SF-539 > 100 µM | U-251 > 100 µM | SK-OV-3 > 100 µM | DMS-273 > 100 µM | SF-268 > 100 µM | SNB-78 > 100 µM | OVCAR-4 > 100 µM | UO-31 > 100 µM | COLO 205 > 100 µM | HOP-18 > 100 µM | OVCAR-3 > 100 µM | ACHN > 100 µM | HT-29 > 100 µM | HCT-116 > 100 µM | K562 30.7 µM | DMS-114 76 µM | SF-295 > 100 µM | XF498 > 100 µM | SK-MEL-28 > 100 µM | MOLT-4 56.2 µM | HL-60 26.4 µM | SN12C > 100 µM | UACC-257 98.4 µM | 786-0 > 100 µM

C=C1CCC2[C@@H](CCC3[C@]2(C)CCC[C@]3(C)C(=O)OC)C1CCO (stereo partly specified)
11.2 µM: HCT-15
inactive: CCRF-CEM 10.5 µM | RPMI-8226 3.12 µM | NCI-H522 5.2 µM | SNB-19 14 µM | HOP-92 7.08 µM | OVCAR-5 14.9 µM | IGROV-1 13.6 µM | EKVX 20.5 µM | TK-10 18.6 µM | OVCAR-8 18.8 µM | Malme-3M 14.9 µM | SNB-75 7.46 µM | M14 13.6 µM | NCI-H23 9.35 µM | UACC-62 11.2 µM | A549 14.4 µM | HOP-62 19.8 µM | KM12 12.5 µM | M19-MEL 15 µM | SF-539 13.4 µM | U-251 11.1 µM | SK-MEL-5 4.53 µM | SK-OV-3 29.3 µM | DMS-273 10.5 µM | SF-268 11.3 µM | SNB-78 16.3 µM | OVCAR-4 12.8 µM | UO-31 14.7 µM | COLO 205 13 µM | HOP-18 16 µM | OVCAR-3 12.6 µM | ACHN 14.8 µM | KM-20L2 9.66 µM | HT-29 4.37 µM | A498 15.8 µM | HCT-116 5.98 µM | SK-MEL-2 15.1 µM | CAKI-1 12.1 µM | K562 6 µM | DMS-114 5.11 µM | SF-295 16.3 µM | DLD-1 14.2 µM | NCI-H460 6.49 µM | XF498 10.2 µM | SK-MEL-28 13.9 µM | MOLT-4 4 µM | LXFL 529 8.89 µM | HL-60 4.02 µM | SW-620 13.1 µM | SN12C 11.9 µM | NCI-H226 14.4 µM | UACC-257 5.98 µM | 786-0 18.3 µM
